Results on 2 compounds are retold here after article PMC11058261, “Nucleoside Phosphorylases make N7-xanthosine” (Nature Communications, 2024).

For test [1], the target named is T1, GtPyNP (pyrimidine NP from G. thermoglucosidasius) (Parageobacillus thermoglucosidasius, UniProt A0AAN0YQC1).
T1 construct: gene deoA
The experiment in a line: HPLC of glycosylation products. The test is classed as biochemical. The note with it: 500 µM X, 500 µM ribose 1-phosphate; 1 g/L enzyme; pH 9 or pH 7; 50 °C.

The next test has as its target T2, human purine NP (Homo sapiens, UniProt P00491).
T2 construct: gene PNP
T2 sequence (P00491 1-289): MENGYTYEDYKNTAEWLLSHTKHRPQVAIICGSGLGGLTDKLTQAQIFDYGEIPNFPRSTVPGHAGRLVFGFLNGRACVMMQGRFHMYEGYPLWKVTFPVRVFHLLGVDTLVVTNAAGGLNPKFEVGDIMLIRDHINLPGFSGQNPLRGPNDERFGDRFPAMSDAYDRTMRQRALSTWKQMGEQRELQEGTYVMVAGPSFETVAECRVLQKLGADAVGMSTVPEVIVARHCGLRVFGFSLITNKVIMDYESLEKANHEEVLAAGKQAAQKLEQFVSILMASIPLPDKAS
As to the kind of experiment: HPLC of glycosylation products. The class given is biochemical. The note with it: 500 µM X, 500 µM ribose 1-phosphate; 1 g/L enzyme; pH 9 or pH 7; 50 °C.

Molecules are shown by their SMILES.

T1 sequence (A0AAN0YQC1 entry or part of it): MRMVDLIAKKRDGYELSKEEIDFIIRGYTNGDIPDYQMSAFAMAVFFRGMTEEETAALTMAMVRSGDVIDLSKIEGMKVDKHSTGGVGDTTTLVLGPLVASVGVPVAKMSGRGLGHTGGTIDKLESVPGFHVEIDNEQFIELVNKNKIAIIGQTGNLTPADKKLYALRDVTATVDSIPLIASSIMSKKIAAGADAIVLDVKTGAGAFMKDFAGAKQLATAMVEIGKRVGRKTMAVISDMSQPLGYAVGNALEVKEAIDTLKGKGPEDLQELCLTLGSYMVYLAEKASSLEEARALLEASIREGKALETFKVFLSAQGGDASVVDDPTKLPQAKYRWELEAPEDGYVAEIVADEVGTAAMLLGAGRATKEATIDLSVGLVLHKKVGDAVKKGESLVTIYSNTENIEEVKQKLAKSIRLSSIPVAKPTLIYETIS

On to `O=P(O)(O)O[C@H]1O[C@H](CO)[C@@H](O)[C@H]1O` [Rib1P, ribose 1-phosphate], for which the “HPLC of glycosylation products” value in test [1] was “purine and pyrimidine NP from Geobacillus thermoglucosidasius”; on human purine NP it was “mammalian NPs (human purine NP)”.
With `O=c1[nH]c(=O)c2[nH]cnc2[nH]1` [X, xanthine], the “HPLC of glycosylation products” value in test [1] is “purine and pyrimidine NP from Geobacillus thermoglucosidasius”; on human purine NP, “mammalian NPs (human purine NP)”.
